Measurements taken from patent publication US5597899A, “Tumor necrosis factor muteins” (Hoffmann-La Roche Inc., priority 1993, dated 1997).
Positions count from the first letter of the chain named. Names may count otherwise.

B1: L29S-R32W-S86T: human TNFα mutein L29S-R32W-S86T (protein)
chain: VRSSSRTPSDKPVAHVVANPQAEGQLQWSNRWANALLANGVELRDNQLVVPSEGLYLIYSQVLFKGQGCPSTHVLLTHTISRIAVTYQTKVNLLSAIKSPCQRETPEGAEAKPWYEPIYLGGVFQLEKGDRLSAEINRPDYLDFAESGQVYFGIIAL
B2: R31N-R32T-N34S: human TNFα mutein R31N-R32T-N34S (protein)
chain: B1 chain with S29L, R31N, W32T, N34S, T86S
B3: D143V-F144L-A145S: human TNFα mutein D143V-F144L-A145S (protein)
chain: B1 chain with S29L, W32R, T86S, D143V, F144L, A145S
B4: R31N-R32T-S86T: human TNFα mutein R31N-R32T-S86T (protein)
chain: B1 chain with S29L, R31N, W32T

Legend:
human TNFR-p75 [1] = assay: Solid phase radioligand competition binding assay, E. coli lysates, TNFR-p75; conditions: 10-fold serial dilutions 10^-2 to 10^-7, < = inhibition but below 50% at 1:100, << = no measurable inhibition at 1:100
Procedure: (§1) 10 ml suspensions of E. coli cells transformed and induced as described in Examples I and II were centrifuged at 4'000 rpm for 10 min and resuspended in 0.9 ml of lysis buffer (10 mM Tris-HCl pH 8.0, 5 mM EDTA, 2 mM PMSF, 10 mM benzamidine, 200 units/ml aprotinine and 0.1 mg/ml lysozyme). After 20 min incubation at room temperature 50 μl of 1M MgCl2, 20 μl of 5 mg/ml DNaseI, 50 μl of 5M NaCl and 50 μl of 10% NP-40 were added and the mixture was further incubated at room temperature for 15 min. 0.5 ml of the lysate clarified by centrifugation at 13'000 rpm for 5 min was subjected to ammonium sulfate precipitation (25%-70% cut). The 70% ammonium sulfat pellet was dissolved in 0.2 ml PBS and analyzed by sodium dodecyl sulfate polyacrylamide gel electrophoresis (SDS-PAGE) to confirm presence and approximate amount of the recombinant proteins.
96 well microtiter plates were coated with recombinant human […] TNFR-p75-hγ3 and TNFR-p55-hγ3 fusion proteins (extracellular portion of the receptor fused to the Fc part of human IgG3) at a concentration of 0.3 μg/ml and 0.1 μg/ml, respectively, in phosphate buffered saline (PBS, 100 μl/well, overnight at 4° C.) [Loetscher, H. et al. J. Biol. Chem. 266, 18324-18329 (1991); Lesslauer, W. et al. Eur. J. Immunol. 21, 2883-2886 (1991)]. After blocking with blocking buffer (50 mM Tris pH 7.4, 140 mM NaCl, 5 mM EDTA, 0.02% NAN3, 1% defatted milk powder) the microtiter plate was washed with PBS and incubated in blocking buffer containing 0.1% defatted milk powder with 10 ng/ml human wild-type ^125 I-TNFα and various dilutions of E. coli lysates ranging from 10^-2 to 10^-7 (10-fold serial dilutions). TNFα was labelled by the Iodogen method (Pierce Chemical Company) to a specific activity of about 10-30 μCi/μg. The volume was 100 μl/well and each lysate dilution was assayed in duplicate or triplicate. After three hours at room temperature the wells were thoroughly washed with PBS and counted in a γ-counter. The results are given in Table 2 for lysates comprising the muteins indicated therein.

human TNFR-p55 [2] = assay: Competitive binding of purified muteins to recombinant human TNFR-p55; conditions: for Decrease in Binding Affinity with Respect to Wildtype TNFR-p55: IC50 of mutein divided by IC50 of wildtype TNFα; for Mutein Concentration for 50% Inhibition of 125I-TNFα Binding (IC50) TNFR-p55: purified protein, 10 ng/ml 125I-TNFα, > = competition but below 50% at 100 μg/ml, >> = no measurable competition at 100 μg/ml
Procedure: (§2) The cells were disrupted in a French press at a pressure of 20'000 psi or by sonication in a Branson Sonifier (Model 450, 2×2minat maximal output, on ice). […] Proteins were eluted with a linear NaCl gradient (0 to 400 mM in 20 mM Tris pH 9.0) at a flow rate of 1 ml/min. 5 ml fractions were collected and analyzed for the presence of TNFα muteins by SDS-PAGE. Positive fractions were pooled, dialyzed against 20 mM 2-morpholino-ethanesulfonic acid (MES) pH 6.0 and applied to a MonoS column (HR 5/5, LKB-Pharmacia) equilibrated in 20 mM MES pH 6.0. Proteins were eluted with a linear NaCl gradient (0 to 400 mM in 20 mM MES pH 6.0) at a flow rate of 0.5 ml/min. […] After dialysis against PBS the protein concentration was determined by the BCA Protein Assay (Pierce Chemical Company) using wild-type human TNFα as a standard or by absorbance measurements at 280 nm.
(§3) TNFα was labelled by the Iodogen method (Pierce Chemical Company) to a specific activity of about 10-30 μCi/μg. The volume was 100 μl/well and each concentration was assayed in duplicate or triplicate. After three hours at room temperature the wells were thoroughly washed with PBS and counted in a γ-counter.

human TNFR-p75 [3] = assay: Competitive binding of purified muteins to recombinant human TNFR-p75; conditions: for Decrease in Binding Affinity with Respect to Wildtype TNFR-p75: IC50 of mutein divided by IC50 of wildtype TNFα; for Mutein Concentration for 50% Inhibition of 125I-TNFα Binding (IC50) TNFR-p75: purified protein, 10 ng/ml 125I-TNFα
Procedure: as §2, §3

human TNFR-p55 [4] = assay: Solid phase radioligand competition binding assay, E. coli lysates, TNFR-p55; conditions: for Dilution of E. coli Lysate for 50% Inhibition of 125I-TNFα Binding (ID50) TNFR-p55: 10-fold serial dilutions 10^-2 to 10^-7, < = inhibition but below 50% at 1:100, << = no measurable inhibition at 1:100; for ID50 TNFR-p55 / ID50 TNFR-p75: ratio = 1 no receptor selectivity, > 1 TNFR-p55 selectivity, < 1 TNFR-p75 selectivity
Procedure: as §1, with “After” for “10 ml suspensions of E. coli cells transformed and induced as described in Examples I and II were centrifuged at 4'000 rpm for 10 min and resuspended in 0.9 ml of lysis buffer (10 mM Tris-HCl pH 8.0, 5 mM EDTA, 2 mM PMSF, 10 mM benzamidine, 200 units/ml aprotinine and 0.1 mg/ml lysozyme). After”
as §3, with “lysate dilution” for “concentration”, “γ-counter. The results are given in Table 2 for lysates comprising the muteins indicated therein.” for “γ-counter.”

Molecule	Dilution of E. coli Lysate for 50% Inhibition of 125I-TNFα Binding (ID50) TNFR-p75 (human TNFR-p75 [1])	Decrease in Binding Affinity with Respect to Wildtype TNFR-p55 (human TNFR-p55 [2])	Mutein Concentration for 50% Inhibition of 125I-TNFα Binding (IC50) TNFR-p55 (human TNFR-p55 [2])	Decrease in Binding Affinity with Respect to Wildtype TNFR-p75 (human TNFR-p75 [3]) [fold]	Mutein Concentration for 50% Inhibition of 125I-TNFα Binding (IC50) TNFR-p75 (human TNFR-p75 [3]) [ng/mL]	Dilution of E. coli Lysate for 50% Inhibition of 125I-TNFα Binding (ID50) TNFR-p55 (human TNFR-p55 [4])	ID50 TNFR-p55 / ID50 TNFR-p75 (human TNFR-p55 [4])
A145F: human TNFα mutein A145F	6,000 fold	33 fold	500 ng/mL	1.5	30	240 fold	0.04
A145R: human TNFα mutein A145R	3,330 fold	2,500 fold	100,000 ng/ml	0.8	35	< 100 fold	< 0.03
A145W: human TNFα mutein A145W	< 100 fold	250 fold	10,000 ng/ml	2.5	100	< 100 fold	< 1
D143N-A145R: human TNFα mutein D143N-A145R (Example I)	125 fold	> 2,500 fold	> 100,000 ng/ml	6.7	300	< 100 fold	< 0.8
Y87T: human TNFα mutein Y87T	< 100 fold	–	–	–	–	< 100 fold	1
Y115W: human TNFα mutein Y115W	2,220 fold	–	–	–	–	2,220 fold	1
B1	< 100 fold	–	–	–	–	2,500 fold	> 25
B2	< 100 fold	–	–	–	–	< 100 fold	1
B3	< 100 fold	–	–	–	–	< 100 fold	< 1
B4	< 100 fold	–	–	–	–	500 fold	> 5
